Experimental data published in PMC10104807, “Modulation of tau tubulin kinases (TTBK1 and TTBK2) impacts ciliogenesis” (Scientific Reports, 2023).
Several values for one entry are separate records, joined by “and”; a condition that tells them apart may be missing. Equal values may be shown once. Read-outs that look alike come from different tables or passages of the source.

Columns and labels:
TTBK2 = target: T1, TTBK2 (Homo sapiens, UniProt Q6IQ55); assay: Eurofins enzymatic radiometric kinase assay; assay type: biochemical; conditions: for TTBK2 PoC: 1 μM, duplicate, lower = greater inhibition
T1 construct: purchased Eurofins

[1] = system: 403 wild-type (WT) human kinases; assay: DiscoverX scanMAX kinome-wide selectivity; assay type: binding; conditions: for # scanMAX kinases with PoC < 10: 1 μM; for S10(1 μM): share of 403 WT human kinases with PoC < 10 at 1 μM
Description: This panel includes 403 wild-type (WT) human kinases but not TTBK1/2. […] Substantial overlap between the MRC and DiscoverX scanMAX kinase panels allows the comparison of results for the same kinases in two different assay formats (enzymatic versus binding, respectively) at the same concentration. Selectivity results are included in two columns within Table 1. […] The rightmost column converts this selectivity score into the number of kinases with a PoC < 10 in the scanMAX panel.
The Eurofins DiscoverX Corporation scanMAX assay platform was employed to assess the selectivity of specific analogs at a single concentration (1 µM). As described previously, this assay platform profiles a compound against 403 wild-type human kinases and delivers percent of control (PoC) values. These percent of control values are included in Table 1 and corresponding kinome tree diagrams as well as tables for each analog included in Fig. S1.

TSSK4 = target: T2, TSSK4 (Homo sapiens, UniProt Q6SA08); assay: Eurofins enzymatic radiometric kinase assay; assay type: biochemical; conditions: ATP at Km, duplicate
T2 construct: purchased Eurofins (radiometric) / Eurofins DiscoverX scanMAX / Reaction Biology / SignalChem
T2 sequence (Q6SA08 1-328): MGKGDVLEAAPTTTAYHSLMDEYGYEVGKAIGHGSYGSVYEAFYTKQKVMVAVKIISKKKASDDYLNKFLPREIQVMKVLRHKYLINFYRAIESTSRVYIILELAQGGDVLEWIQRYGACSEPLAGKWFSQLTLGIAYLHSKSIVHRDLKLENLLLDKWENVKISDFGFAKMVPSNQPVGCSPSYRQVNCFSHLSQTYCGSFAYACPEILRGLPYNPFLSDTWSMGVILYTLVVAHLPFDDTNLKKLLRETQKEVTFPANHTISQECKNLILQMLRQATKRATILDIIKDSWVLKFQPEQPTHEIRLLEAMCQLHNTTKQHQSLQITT
Method: (§1) The column labeled “# < 10 PoC in enzyme panel” in Table 1 reports the number of kinases in this 17-member panel inhibited > 90% by each analog.
(§2) Details about the substrate used, protein constructs, controls, and assay protocol for these kinase assays are available at the Eurofins website: https://www.eurofinsdiscoveryservices.com. Reaction Biology Corp. (RBC) radiometric HotSpot kinase assays were carried out at the Km value for ATP in dose–response (10-pt curve) format for MYLK4, RIPK5, and YSK4 in Table S2. Details about the substrate used, protein constructs, controls, and assay protocol for these kinase assays are available at the RBC website: https://www.reactionbiology.com/list-kinase-targets-us-facility. SignalChem developed an ADP-Glo assay to test for enzymatic inhibition of PIKfyve in dose–response (10-pt curve) format in duplicate.

MARK4 = target: T3, MARK4 (Homo sapiens, UniProt Q96L34); assay: Eurofins enzymatic radiometric kinase assay; assay type: biochemical; conditions: ATP at Km, duplicate
T3 construct: purchased Eurofins (radiometric) / Eurofins DiscoverX scanMAX / Reaction Biology / SignalChem
T3 sequence (Q96L34 1-752): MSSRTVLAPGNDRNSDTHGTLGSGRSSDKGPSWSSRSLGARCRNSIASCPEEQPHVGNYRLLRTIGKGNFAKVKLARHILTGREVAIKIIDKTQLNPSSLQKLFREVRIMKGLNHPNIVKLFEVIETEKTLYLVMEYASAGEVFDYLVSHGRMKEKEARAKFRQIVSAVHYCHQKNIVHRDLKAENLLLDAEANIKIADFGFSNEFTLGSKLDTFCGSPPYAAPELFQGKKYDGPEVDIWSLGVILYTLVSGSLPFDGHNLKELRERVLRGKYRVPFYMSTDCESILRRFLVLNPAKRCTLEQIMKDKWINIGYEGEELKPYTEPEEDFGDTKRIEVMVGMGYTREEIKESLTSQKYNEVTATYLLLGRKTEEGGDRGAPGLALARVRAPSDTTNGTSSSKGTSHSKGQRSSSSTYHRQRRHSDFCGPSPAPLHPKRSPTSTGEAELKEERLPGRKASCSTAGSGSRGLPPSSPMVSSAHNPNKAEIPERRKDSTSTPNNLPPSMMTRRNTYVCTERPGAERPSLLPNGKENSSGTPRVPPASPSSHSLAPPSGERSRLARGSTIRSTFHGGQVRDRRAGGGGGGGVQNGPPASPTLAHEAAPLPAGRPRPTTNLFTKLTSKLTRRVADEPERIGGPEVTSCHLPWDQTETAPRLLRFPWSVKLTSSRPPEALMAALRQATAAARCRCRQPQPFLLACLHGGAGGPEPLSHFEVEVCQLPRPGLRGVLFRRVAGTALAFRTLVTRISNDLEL
Method: as §1, §2

HIPK1 = target: T4, HIPK1 (Homo sapiens, UniProt Q86Z02); assay: Eurofins enzymatic radiometric kinase assay; assay type: biochemical; conditions: ATP at Km, duplicate
T4 construct: purchased Eurofins (radiometric) / Eurofins DiscoverX scanMAX / Reaction Biology / SignalChem
Method: as §1, §2

[2] = target: 17-member enzymatic kinase assay panel; assay: 17-member enzymatic kinase panel, number of kinases inhibited; assay type: biochemical; conditions: 1 μM; of 17 kinases
TTBK1 = target: T5, TTBK1 (Homo sapiens, UniProt Q5TCY1); assay: Eurofins enzymatic radiometric kinase assay; assay type: biochemical; conditions: for TTBK1 PoC: 1 μM, duplicate, lower = greater inhibition
T5 construct: purchased Eurofins
Method: as §1, §2

NLuc-TTBK1 = target: T6, NLuc-TTBK1 (Homo sapiens, UniProt Q5TCY1); assay: TTBK1 NanoBRET cellular target engagement assay in HEK293 cells; assay type: cell-based; conditions: 2 μM tracer 29
T6 construct: host or cells: HEK293
Method: HEK293 cells were transfected with constructs of TTBK1 or TTBK2 tagged with NLuc on the N- or C-terminus as previously described[43] Constructs for NanoBRET measurements of TTBK1 (NLuc-TTBK1 and TTBK1-NLuc) and TTBK2 (NLuc-TTBK2 and TTBK2-NLuc) were kindly provided by Promega. NLuc orientations used in the respective assays are indicated. Cells were plated in 96-well tissue culture treated plates (Corning 3917) at a cell density of 2 × 10^5 cells/mL, with a total volume of 100 μL per well in DMEM. […] NanoBRET plates were read after addition of 50 μL of a stock solution (3X) containing NanoBRET NanoGlo substrate (Promega N2161), extracellular NanoLuc inhibitor (Promega N2161) and Opti-MEM. For a 96-well plate the 3X stock solution was prepared with 30 μL of NanoBRET NanoGlo substrate, 10 μL of extracellular NanoLuc inhibitor, and 4960 μL of Opti-MEM without phenol red. […] HEK293 cells were transfected with NLuc-TTBK1 or NLuc-TTBK2. […] One biological replicate was plotted in GraphPad Prism with log[inhibitor] vs. response (three parameters) and included in Fig. 3C. NanoBRET assays were carried out in dose-response format as described previously. NLuc orientations used in the respective assays are as follows: NLuc-TTBK1, NLuc-TTBK2, and PIP4K2C-NLuc (for PI5[…]γ). […] Data are reported as IC50 ± standard error mean (SEM). For PI5[…]γ, 9 was tested in 12-point dose-response format with a top concentration of 10 μM (data in Table S2). One biological replicate was plotted in GraphPad Prism with log[inhibitor] vs. response (three parameters).

[3] = ATP at Km, dose–response 9-pt curve
[4] = intact HEK293 cells, read-out: TTBK1 intact cell NB IC50
[5] = permeabilized HEK293 cells (digitonin), read-out: TTBK1 permeabilized cell NB IC50

T5 sequence (Q5TCY1 whole entry): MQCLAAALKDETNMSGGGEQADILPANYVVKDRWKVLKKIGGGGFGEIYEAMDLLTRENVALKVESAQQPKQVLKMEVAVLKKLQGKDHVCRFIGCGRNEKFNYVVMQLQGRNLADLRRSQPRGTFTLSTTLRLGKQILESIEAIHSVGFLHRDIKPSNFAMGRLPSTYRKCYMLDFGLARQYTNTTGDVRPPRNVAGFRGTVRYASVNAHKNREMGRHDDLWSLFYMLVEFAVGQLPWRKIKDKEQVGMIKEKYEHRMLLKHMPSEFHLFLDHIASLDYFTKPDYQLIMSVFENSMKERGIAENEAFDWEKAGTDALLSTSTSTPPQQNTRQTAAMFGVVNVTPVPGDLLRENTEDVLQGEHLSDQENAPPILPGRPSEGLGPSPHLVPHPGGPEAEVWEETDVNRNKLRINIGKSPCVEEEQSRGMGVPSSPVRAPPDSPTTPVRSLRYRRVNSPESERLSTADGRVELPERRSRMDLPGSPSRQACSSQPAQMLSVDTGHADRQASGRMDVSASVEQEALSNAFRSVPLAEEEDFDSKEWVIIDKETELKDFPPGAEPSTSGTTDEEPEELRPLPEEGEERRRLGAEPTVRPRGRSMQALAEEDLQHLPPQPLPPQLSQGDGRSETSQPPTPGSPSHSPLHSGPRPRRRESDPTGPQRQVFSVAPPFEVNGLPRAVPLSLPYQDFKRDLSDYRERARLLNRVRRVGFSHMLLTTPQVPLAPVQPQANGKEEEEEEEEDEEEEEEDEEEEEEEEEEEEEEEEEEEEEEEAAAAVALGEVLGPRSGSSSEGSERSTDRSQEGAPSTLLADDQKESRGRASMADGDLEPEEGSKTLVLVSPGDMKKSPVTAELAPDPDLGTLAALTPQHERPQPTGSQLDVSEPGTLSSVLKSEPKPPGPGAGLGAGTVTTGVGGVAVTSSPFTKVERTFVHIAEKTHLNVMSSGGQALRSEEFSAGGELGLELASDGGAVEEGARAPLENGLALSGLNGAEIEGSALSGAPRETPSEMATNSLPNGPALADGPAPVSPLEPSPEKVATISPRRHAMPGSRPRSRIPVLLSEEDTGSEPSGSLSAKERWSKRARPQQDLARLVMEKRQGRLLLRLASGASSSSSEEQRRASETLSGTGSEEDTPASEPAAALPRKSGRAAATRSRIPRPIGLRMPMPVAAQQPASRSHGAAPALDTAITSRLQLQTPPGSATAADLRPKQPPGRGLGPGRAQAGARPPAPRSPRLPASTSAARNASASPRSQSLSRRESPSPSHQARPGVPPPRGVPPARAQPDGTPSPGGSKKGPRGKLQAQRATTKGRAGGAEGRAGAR
T6 sequence (Q5TCY1 whole entry): as above
T4 sequence (Q86Z02 whole entry): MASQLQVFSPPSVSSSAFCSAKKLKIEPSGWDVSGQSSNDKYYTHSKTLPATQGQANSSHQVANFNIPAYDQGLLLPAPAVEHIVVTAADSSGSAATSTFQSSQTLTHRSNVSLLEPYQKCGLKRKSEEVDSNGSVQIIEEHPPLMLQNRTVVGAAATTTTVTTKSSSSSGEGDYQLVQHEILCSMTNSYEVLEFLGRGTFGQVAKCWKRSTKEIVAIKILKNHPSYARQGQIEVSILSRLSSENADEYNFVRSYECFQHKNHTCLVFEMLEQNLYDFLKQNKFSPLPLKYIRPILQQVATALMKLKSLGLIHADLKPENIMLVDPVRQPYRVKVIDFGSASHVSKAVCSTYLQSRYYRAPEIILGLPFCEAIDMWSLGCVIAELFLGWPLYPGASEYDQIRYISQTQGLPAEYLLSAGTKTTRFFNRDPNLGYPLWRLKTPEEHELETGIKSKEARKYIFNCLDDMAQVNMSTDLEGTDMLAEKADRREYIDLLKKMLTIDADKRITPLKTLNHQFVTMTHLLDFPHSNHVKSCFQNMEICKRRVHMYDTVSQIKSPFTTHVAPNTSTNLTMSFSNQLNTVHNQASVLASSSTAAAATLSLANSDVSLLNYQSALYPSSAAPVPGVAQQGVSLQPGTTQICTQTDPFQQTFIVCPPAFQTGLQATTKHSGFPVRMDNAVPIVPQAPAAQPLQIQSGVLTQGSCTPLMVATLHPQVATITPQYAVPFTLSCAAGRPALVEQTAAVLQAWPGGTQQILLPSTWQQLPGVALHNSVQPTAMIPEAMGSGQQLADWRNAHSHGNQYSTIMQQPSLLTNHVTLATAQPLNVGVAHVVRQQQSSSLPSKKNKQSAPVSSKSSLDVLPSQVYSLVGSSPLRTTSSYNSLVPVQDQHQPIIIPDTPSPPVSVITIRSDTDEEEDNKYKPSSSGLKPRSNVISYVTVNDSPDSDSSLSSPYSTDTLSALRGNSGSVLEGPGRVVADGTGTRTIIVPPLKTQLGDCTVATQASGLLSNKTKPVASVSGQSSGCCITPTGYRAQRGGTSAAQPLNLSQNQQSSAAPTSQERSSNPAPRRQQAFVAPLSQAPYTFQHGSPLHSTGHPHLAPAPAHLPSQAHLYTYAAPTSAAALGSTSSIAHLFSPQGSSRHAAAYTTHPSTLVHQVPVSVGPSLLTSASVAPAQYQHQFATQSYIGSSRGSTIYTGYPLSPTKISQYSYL
T1 sequence (Q6IQ55 whole entry): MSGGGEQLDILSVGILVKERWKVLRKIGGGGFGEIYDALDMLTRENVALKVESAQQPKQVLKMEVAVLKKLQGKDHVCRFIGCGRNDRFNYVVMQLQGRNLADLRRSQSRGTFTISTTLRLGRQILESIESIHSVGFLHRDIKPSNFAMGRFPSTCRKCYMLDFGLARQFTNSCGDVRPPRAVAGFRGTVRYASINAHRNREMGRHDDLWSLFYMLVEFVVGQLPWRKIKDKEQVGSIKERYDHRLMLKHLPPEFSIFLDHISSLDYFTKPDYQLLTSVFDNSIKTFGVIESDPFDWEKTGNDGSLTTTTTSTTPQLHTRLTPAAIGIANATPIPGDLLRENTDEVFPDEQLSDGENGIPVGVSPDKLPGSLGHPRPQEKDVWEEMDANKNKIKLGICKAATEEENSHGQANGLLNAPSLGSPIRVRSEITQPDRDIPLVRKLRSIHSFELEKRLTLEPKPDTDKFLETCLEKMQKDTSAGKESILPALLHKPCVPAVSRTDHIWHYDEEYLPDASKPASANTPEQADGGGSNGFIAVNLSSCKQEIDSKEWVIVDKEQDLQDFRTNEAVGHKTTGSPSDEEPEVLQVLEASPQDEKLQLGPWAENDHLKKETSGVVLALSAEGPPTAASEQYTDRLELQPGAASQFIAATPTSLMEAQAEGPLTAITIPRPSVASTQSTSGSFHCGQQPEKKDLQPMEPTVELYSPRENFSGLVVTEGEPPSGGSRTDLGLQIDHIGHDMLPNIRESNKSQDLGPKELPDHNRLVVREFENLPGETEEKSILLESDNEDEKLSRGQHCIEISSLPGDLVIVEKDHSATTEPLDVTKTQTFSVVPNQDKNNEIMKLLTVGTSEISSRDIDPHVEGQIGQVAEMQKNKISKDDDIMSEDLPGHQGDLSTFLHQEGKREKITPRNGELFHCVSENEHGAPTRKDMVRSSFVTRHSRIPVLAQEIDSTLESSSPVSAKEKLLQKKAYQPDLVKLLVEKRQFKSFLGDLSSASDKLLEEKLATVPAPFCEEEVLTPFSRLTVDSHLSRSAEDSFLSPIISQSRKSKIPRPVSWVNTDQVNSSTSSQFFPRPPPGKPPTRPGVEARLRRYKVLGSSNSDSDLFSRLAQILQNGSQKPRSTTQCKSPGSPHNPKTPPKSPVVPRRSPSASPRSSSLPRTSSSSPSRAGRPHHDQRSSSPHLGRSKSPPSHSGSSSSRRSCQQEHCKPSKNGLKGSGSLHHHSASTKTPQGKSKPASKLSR

Row | IC50 (NLuc-TTBK1; [4]) [nM] | IC50 (NLuc-TTBK1; [5]) [nM] | SMILES | TTBK2 PoC (TTBK2; ATP at Km) | # scanMAX kinases with PoC < 10 [1] | S10(1 μM) [1] | TSSK4 PoC at 1 μM (TSSK4) [PoC] | MARK4 PoC at 1 μM (MARK4) [PoC] | HIPK1 PoC at 1 μM (HIPK1) [PoC] | # kinases < 10 PoC in enzyme panel [2] | IC50 (TTBK2; [3]) [nM] | TTBK1 PoC (TTBK1; ATP at Km) | IC50 (TTBK2) [nM] | IC50 (TTBK1) [nM] | IC50 (TTBK1; [3]) [nM]
1 |  |  | CC(C)(O)C#Cc1ccc2[nH]c3c(c2c1)-c1nc(N)ncc1CCC3 [AMG28, reference compound] | 20 PoC | 21 | 0.052 | 70 | 18 | 67 |  |  |  |  |  | 
2 |  |  | CC(C)(O)C#Cc1ccc2[nH]cc(-c3ccnc(N)n3)c2c1 [Compound 3] | 24 PoC | 34 | 0.084 | 78 | 43 | 87 | 3 | 384 | 43 PoC |  |  | 
3 | > 30000 | 19000 | CC(C)(O)C#Cc1ccc2[nH]c3c(c2c1)-c1nc(N)ncc1CCCC3 [Compound 2] | 69 PoC and 69/NT PoC |  |  | 77 | 86 | 96 | 1 |  | 92 PoC and 92/NT^[c] PoC |  |  | 
4 | > 30000 | > 30000 | COC(C)(C)C#Cc1ccc2[nH]c3c(c2c1)-c1nc(N)ncc1CCC3 [Compound 11] | 110 PoC and 110/NT PoC |  |  | 101 | 103 | 96 | 1 |  | 117 PoC and 117/NT PoC |  |  | 

Row | SMILES | IC50 (NLuc-TTBK1; [4]) [nM] | IC50 (NLuc-TTBK1; [5]) [nM] | TTBK2 PoC (TTBK2; ATP at Km) | # scanMAX kinases with PoC < 10 [1] | S10(1 μM) [1] | TSSK4 PoC at 1 μM (TSSK4) [PoC] | MARK4 PoC at 1 μM (MARK4) [PoC] | HIPK1 PoC at 1 μM (HIPK1) [PoC] | # kinases < 10 PoC in enzyme panel [2] | IC50 (TTBK2; [3]) [nM] | TTBK1 PoC (TTBK1; ATP at Km) | IC50 (TTBK2) [nM] | IC50 (TTBK1) [nM] | IC50 (TTBK1; [3]) [nM]
5 | CC(C)(O)C#Cc1ccc2[nH]c3c(c2c1)-c1nc(N)ncc1CC3 [Compound 1] | > 30000 | 2500 | 43 PoC | 20 | 0.05 | 55 | 53 | 76 | 2 | 1210 | 78 PoC | > 1000 | > 1000 | 3140
